Assay results published in US7897628B2, “Aryl carbonyl derivatives as therapeutic agents” (Novo Nordisk A/S, priority 2002, dated 2011).

test system: glucokinase; assay: Liver specificity: activity in isolated hepatocytes (Glucokinase Activity Assay (II)) compared to Ins-1 cells (Glucokinase Activity Assay (III)); assay type: cell-based; conditions: Glucokinase Activity Assay (II) (isolated hepatocytes) compared to Glucokinase Activity Assay (III) (Ins-1 cells)
From the text: For the purpose of describing this invention, the potential liver selectivity of a glucokinase activator may be assayed by comparison of the results obtained in response to the glucokinase activator in isolated hepatocytes and the results obtained in response to the glucokinase activator in Ins-1 cells. […] The activity of the glucokinase activator in Glucokinase Activity Assay (II) (hepatocytes) may for instance be at least 1.1 fold higher, such as at least 1.2 fold higher, for instance at least 1.3 fold higher, such as at least 1.4 fold higher, for instance 1.5 fold higher, such as at least 1.6 fold higher, for instance at least 1.7 fold higher, such as at least 1.8 fold higher, for instance at least 1.9 fold higher, such as at least 2.0 fold higher, for instance at least a 3.0 fold higher, such as at least a 4.0 fold higher, for instance at least 5.0 fold higher, such as at least 10 fold higher than the activity of the glucokinase activator in Glucokinase Activity Assay (III) (Ins-1 cells). Alternatively, the glucokinase activator may show no activity in the Ins-1 cells measured as described in the Glucokinase Activity Assay (III), while showing a significant activity in hepatocytes measured as described in the Glucokinase Activity Assay (II).

SMILES	liver specific glucokinase activator (significantly higher activity in isolated hepatocytes than in Ins-1 cells)
COc1cccc(F)c1Oc1ccc(F)cc1NC(=O)Nc1nc(CC(=O)NCCN2CCOCC2)cs1 [2-(2-{3-[5-fluoro-2-(2-fluoro-6-methoxyphenoxy)phenyl]ureido}thiazol-4-yl)-N-(2-morpholin-4-ylethyl)acetamide]	liver specific glucokinase activators
CCOC(=O)c1csc(NC(=O)Nc2cc(F)ccc2Oc2cccc(OC)c2OC)n1 [2-{3-[2-(2,3-dimethoxyphenoxy)-5-fluorophenyl]ureido}thiazole-4-carboxylic acid ethyl ester]	liver specific glucokinase activators
COc1cccc(Oc2ccc(F)cc2NC(=O)Nc2nc(C(=O)O)cs2)c1OC [2-{3-[2-(2,3-dimethoxyphenoxy)-5-fluorophenyl]ureido}thiazole-4-carboxylic acid]	liver specific glucokinase activators
CCOC(=O)Cc1csc(NC(=O)Nc2cc(F)ccc2Oc2cccc(OC)c2OC)n1 [(2-{3-[2-(2,3-dimethoxyphenoxy)-5-fluorophenyl]ureido}thiazol-4-yl)acetic acid ethyl ester]	liver specific glucokinase activators
COc1cccc(F)c1Oc1ccc(F)cc1NC(=O)Nc1nc(CC(=O)O)cs1 [(2-{3-[5-fluoro-2-(2-fluoro-6-methoxyphenoxy)phenyl]ureido}thiazol-4-yl)acetic acid]	liver specific glucokinase activators
COc1cccc(F)c1Oc1ccc(F)cc1NC(=O)Nc1nc(CC(=O)NCC(=O)O)cs1 [[2-(2-{3-[5-fluoro-2-(2-fluoro-6-methoxyphenoxy)phenyl]ureido}thiazol-4-yl)acetylamino]acetic acid]	liver specific glucokinase activators
Cc1ccc(NC(=O)Nc2nc(CC(=O)O)cs2)c(C(=O)C2CCCC2)c1 [{2-[3-(2-cyclopentanecarbonyl-4-methyl-phenyl)-ureido]-thiazol-4-yl}-acetic acid]	liver specific glucokinase activators
Cc1ccc(NC(=O)Nc2nc(CC(=O)O)cs2)c(OCC(C)C)c1 [{2-[3-(4-methyl-2-[2-methylpropoxy]phenyl)-ureido]-thiazol-4-yl}-acetic acid]	liver specific glucokinase activators
